Source: PMC7734590, “Identification of a Selective RelA Inhibitor Based on DSE-FRET Screening Methods” (International Journal of Molecular Sciences, 2020)
Read-outs that look alike come from different tables or passages of the source.

Tests used:
cRel = target: T1, cRel (Homo sapiens, UniProt Q04864); test: DSE-FRET cRel–DNA binding inhibition; type: biochemical
T1 construct: GST; made in house
T1 sequence (Q04864 1-619): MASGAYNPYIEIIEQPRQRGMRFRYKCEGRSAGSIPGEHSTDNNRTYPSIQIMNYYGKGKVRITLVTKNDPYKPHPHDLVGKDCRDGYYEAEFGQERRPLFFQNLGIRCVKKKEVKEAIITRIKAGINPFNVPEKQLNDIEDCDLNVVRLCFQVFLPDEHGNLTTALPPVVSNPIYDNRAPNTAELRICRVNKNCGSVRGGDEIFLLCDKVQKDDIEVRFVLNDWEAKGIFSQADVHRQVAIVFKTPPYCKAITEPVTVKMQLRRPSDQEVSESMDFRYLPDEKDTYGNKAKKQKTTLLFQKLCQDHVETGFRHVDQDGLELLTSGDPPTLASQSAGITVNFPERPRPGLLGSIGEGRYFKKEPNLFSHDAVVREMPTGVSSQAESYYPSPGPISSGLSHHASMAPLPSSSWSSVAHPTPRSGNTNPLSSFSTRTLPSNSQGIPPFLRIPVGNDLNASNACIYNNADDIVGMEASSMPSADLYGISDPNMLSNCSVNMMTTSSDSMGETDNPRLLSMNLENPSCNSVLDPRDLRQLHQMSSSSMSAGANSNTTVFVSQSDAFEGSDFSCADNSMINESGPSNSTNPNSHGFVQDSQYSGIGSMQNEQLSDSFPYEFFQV

PK8 cells = test: Cell viability assay (PrestoBlue), TNF-α-treated PK8 cells; type: cell-based, human; conditions: TNF-α 50 ng/mL, 48 h
Procedure: The human pancreatic carcinoma cell line PK8 was grown in Roswell Park Memorial Institute 1640 Medium (RPMI) (SIGMA; R8758) supplemented with 10% fetal bovine serum (FBS) at 37 °C with 5% CO2.
Cell viability was measured using the PrestoBlue assay according to the standard protocol (Thermo Fisher Scientific, Waltham, MA, USA: A13261). PK8 cells were cultivated on 96-well plates. After a 48 h treatment with TNF-α (50 ng/mL) in the presence or absence of A55, the culture medium was replaced with fresh medium containing 10% PrestoBlue and incubated for an additional 1 h at 37 °C and 5% CO2. Fluorescence intensity was then measured using a multiplate reader (EnSpire, PerkinElmer, Waltham, MA, USA).

p50 = target: T2, p50 (Homo sapiens, UniProt P19838); test: DSE-FRET p50–DNA binding inhibition; type: biochemical
T2 sequence (P19838 1-433 limits assumed): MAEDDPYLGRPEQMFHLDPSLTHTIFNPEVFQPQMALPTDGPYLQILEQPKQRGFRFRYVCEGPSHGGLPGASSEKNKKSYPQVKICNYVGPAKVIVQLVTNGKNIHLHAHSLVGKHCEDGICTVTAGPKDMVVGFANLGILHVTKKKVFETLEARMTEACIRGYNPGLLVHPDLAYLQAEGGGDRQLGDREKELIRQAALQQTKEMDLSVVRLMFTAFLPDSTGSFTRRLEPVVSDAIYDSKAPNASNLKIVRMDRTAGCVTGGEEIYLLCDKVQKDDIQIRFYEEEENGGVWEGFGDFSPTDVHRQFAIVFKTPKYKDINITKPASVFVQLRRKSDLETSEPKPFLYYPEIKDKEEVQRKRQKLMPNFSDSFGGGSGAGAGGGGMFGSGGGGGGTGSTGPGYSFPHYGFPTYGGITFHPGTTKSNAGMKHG

RelA [1] = target: T3, RelA (Homo sapiens, UniProt Q04206); test: DSE-FRET RelA–DNA binding inhibition; type: biochemical
T3 sequence (Q04206 19-306 limits assumed): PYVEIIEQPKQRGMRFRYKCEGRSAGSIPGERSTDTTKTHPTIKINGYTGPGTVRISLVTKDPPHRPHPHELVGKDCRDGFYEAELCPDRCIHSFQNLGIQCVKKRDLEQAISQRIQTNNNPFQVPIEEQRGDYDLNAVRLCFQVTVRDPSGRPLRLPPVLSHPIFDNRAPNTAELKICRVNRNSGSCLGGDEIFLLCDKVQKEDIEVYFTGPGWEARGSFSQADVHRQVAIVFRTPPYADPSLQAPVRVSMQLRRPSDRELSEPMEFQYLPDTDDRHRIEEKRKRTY

p52 [2] = target: T4, p52 (Homo sapiens, UniProt Q00653); test: DSE-FRET p52–DNA binding inhibition; type: biochemical
T4 sequence (Q00653 1-454 limits assumed): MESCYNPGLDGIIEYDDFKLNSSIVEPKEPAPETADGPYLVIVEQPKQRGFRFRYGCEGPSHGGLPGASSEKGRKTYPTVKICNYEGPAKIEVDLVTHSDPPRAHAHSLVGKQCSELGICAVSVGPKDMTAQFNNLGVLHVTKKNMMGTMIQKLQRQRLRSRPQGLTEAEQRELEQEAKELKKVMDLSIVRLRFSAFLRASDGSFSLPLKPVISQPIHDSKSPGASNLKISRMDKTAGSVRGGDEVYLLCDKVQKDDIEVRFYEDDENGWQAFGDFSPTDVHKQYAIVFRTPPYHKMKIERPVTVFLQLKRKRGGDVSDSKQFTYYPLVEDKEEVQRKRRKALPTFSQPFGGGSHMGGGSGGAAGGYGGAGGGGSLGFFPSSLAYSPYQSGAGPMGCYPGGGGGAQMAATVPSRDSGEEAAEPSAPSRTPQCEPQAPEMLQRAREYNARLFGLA

RelA [3] = target: T3, RelA; test: EMSA with recombinant RelA; type: biochemical
GST–p52 = target: T5, GST–p52 (Homo sapiens, UniProt Q00653); test: SPR analysis with immobilized GST–p52; type: binding
T5 sequence (Q00653 1-454 limits assumed): T4 sequence (Q00653 1-454 limits assumed)
Procedure: (§1) SPR biosensor measurements were performed at 25 °C using a Biacore T100 instrument (GE Healthcare, Chicago, IL, USA). […] Next, 4 µg/mL GST–RelA or 5 µg/mL GST (GE Healthcare) was flowed through the channel (5 μL/min, for 180 s) and captured on the sensor chip. […] Dissociation constants were computed by fitting to a 1:1 interaction model using Biacore (GE Healthcare). Stoichiometry was calculated based on the theoretical Rmax value, where the theoretical Rmax = MWA/MWL RL SM (A, analyte; L, ligand; RL, immobilization level of ligand RU; SM, stoichiometry).

p52 [4] = target: T4, p52; test: EMSA with recombinant p52; type: biochemical
GST–RelA = GST–RelA (Homo sapiens, UniProt Q04206); test: SPR analysis with immobilized GST–RelA; type: binding; conditions: for Rmax / Kd: GST–RelA; for Kd: read-out: dissociation constant (Kd)
Sequence of GST–RelA (Q04206 19-306 limits assumed): as the sequence (Q04206 19-306 limits assumed) above
Procedure: as §1

IC50 (cRel): > 100 µM
IC50 (p50): > 100 µM
Hit Judgement of: RelA (RelA [1]; 2nd screening at 96 well plate, 1 = judged hit): 1
ligand efficiency (LE) (RelA [1]; 16 heavy atoms): 0.44
RelA–DNA binding inhibition (RelA [1]; 96-well plate, in silico selected compounds): over 50%
RelA–DNA binding inhibition at 50 µM (RelA [1]; 96-well plates, 50 µM): inhibited only RelA–DNA binding
inhibition at 50 µM (RelA [1]; 96 well plate, 50 µM, 120 min-0 min, read-out: Kinetic assay @ 50 µM RelA Inhibition % ΔRFU(120 min-0 min)): 63%
IC50 (RelA [1]; DSE-FRET): 9.31 µM
p52–DNA binding inhibition at 50 µM (p52 [2]; 96-well plates, 50 µM): inhibited only RelA–DNA binding
inhibition at 50 µM (p52 [2]; 96 well plate, 50 µM, 120 min-0 min, read-out: Kinetic assay @ 50 µM p52 Inhibition % ΔRFU(120 min-0 min)): 6.66%
IC50 (p52 [2]; DSE-FRET): > 100 µM
Kd (GST–p52): 1.27 µM
Rmax (GST–p52; GST–p52, 3.125–100 µM A55): 11.4 RU
Rmax GST-p52 (GST–p52; Run 1, 100 uM - […], theoretical Rmax 3.4): 11.4 RU
Rmax (GST–RelA; 0.625–20 µM A55): 7.3 RU
Kd (GST–RelA; 0.625–20 µM A55): 2.87 µM
Rmax (GST–RelA; 3.125–100 µM A55): 4.7 RU
Kd (GST–RelA; 3.125–100 µM A55): 13 µM
Rmax GST-RelA (GST–RelA; Run 1, 100 uM - […], theoretical Rmax 4.5): 4.7 RU
Rmax GST-RelA (GST–RelA; Run 2, 20 uM - […], theoretical Rmax 5.0): 7.3 RU
Structure (SMILES): Cc1cc(O)n(CC(=O)O)c(=O)c1C(N)=O [A55, 2-(3-carbamoyl-6-hydroxy-4-methyl-2-oxopyridin-1(2H)-yl) acetic acid]
cell proliferation / growth inhibition (PK8 cells): enhanced the growth inhibition of TNF-α-treated PK8 cells in a dose-dependent manner
dose–response of RelA–DNA binding inhibition (RelA [1]; 2–10 µM): inhibited RelA–DNA binding in a concentration-dependent manner
EMSA inhibition of RelA–DNA binding (RelA [3]): selectively inhibited the RelA–DNA binding
EMSA inhibition of p52–DNA binding (p52 [4]): selectively inhibited the RelA–DNA binding
